From patent publication US20140050779A1, “[…]-2 INHIBITORS AND USES THEREOF” (SINGAPORE HEALTH SERVICES PTE. LTD., priority 2011, published 2014)
Entries after “also recorded” stand apart in the source; their conditions may differ.

What was measured:
Format in all cases: cell-based
[1] = system: TG-2; test: Western blot of TG proteins in human scleral fibroblasts after muscarinic agents
Description: (§1) All cells used in examples described herein were between passages 2-4. Passaged cells were plated at a concentration of 2×10^5/mL into 6 well plates containing DMEM with 10% FBS. The cells were seen to attach to the bottom of the culture wells after 4 hours. Old media was removed from wells and 1 mL of drug was added with fresh full medium and incubated at 37° C. Fresh drugs were replaced daily consecutively for the next 5 days to avoid oxidation. The drugs/media was removed and wells were washed twice with 1×PBS. 200 μl of RIPA lysis buffer was added per well and incubated for 5 minutes and cells were scrapped into an eppendorf tube. The cells were stored at −20° C. until sonication. The cells were sonicated on ice thrice at 20% output power for 5 seconds each time and rested 1 minute in between each turn. Cell debris was spun down at 12000 rpm for 20 minutes. The supernatant was poured into a new eppendorf tube and cell concentrations were determined using the Dc Protein assay Kit (Bio-Rad, MA). Passaged cells were plated at a concentration of 1×10^5 into 6 well plates containing DMEM with 10% FBS. The cells were seen to attach to the bottom of the culture wells after 4 hours. Freshly prepared muscarinic agents' at base line, 0.1, 1, 10 and 100 μM concentrations were added for 5 days (Table 2). The culture medium was removed and fresh medium containing the same muscarinic drug added every day to avoid drug changes such as atropine oxidation. Cell lysate was collected for relative quantitative (q) PCR and protein analysis at day 5.
(§2) The cells were lysed by sonification in 1×RIPA lysis buffer (santa cruz biotechnology, Sc-24948) with 10 μl PMSF solution, 10 μl sodium orthovanadate solution and 20 μl protease inhibitor cocktail solution. After centrifugation at 20,000×g at 4° C. for 20 minutes, and the supernatant collected. The protein content in the supernatants was measured using the DC Protein Assay kit (Bio-Rad, MA) following the manufacturer's instructions. Samples were stored at −80° C. until assayed.
(§3) The mouse and human scleral fibroblasts were treated with atropine or carbachol at 0.01, 0.1, 1, 5 and 10 μM concentrations for 5 days. Following 5 days of treatment, the total cellular protein was extracted from these cells and TG proteins detected via Western blot analysis.
Human and, mouse scleral fibroblast proteins in the supernatant were separated by SDS-PAGE, transferred to nitrocellulose membranes, blocked in 5% BSA in TBST (10 mM Tris-HCl [pH 8.0], 150 mM NaCl, and […] Tween-20) for 2 hours at room temperature, and incubated with the same anti-TG-2 antibody described herein at a dilution of 1:1000 and anti β-tubulin antibodies used as a positive control, for 1 hour at room temperature. […]

[2] = system: TG-2; test: Western blot of TG proteins in mouse scleral fibroblasts after muscarinic agents
Description: as §1, §2, §3
Human and, mouse scleral fibroblast proteins in the supernatant were separated by SDS-PAGE, transferred to nitrocellulose membranes, blocked in 5% BSA in TBST (10 mM Tris-HCl [pH 8.0], 150 mM NaCl, and […] Tween-20) for 2 hours at room temperature, and incubated with the same anti-TG-2 antibody described herein at a dilution of 1:1000 and anti β-tubulin antibodies used as a positive control, for 1 hour at room temperature. The membranes were washed 3 times in TBST and incubated with HRP-conjugated secondary antibody (Chemicon International) at a dilution of 1:2500 for 1 hour at room temperature. Immunoreactive bands were visualized using the enhanced chemiluminescence method (GE Healthcare, Buckinghamshire, UK). The membrane was wrapped in plastic and placed against an X-ray film to expose for an appropriate length of time (30 seconds-5 minutes).

[3] = system: TGase 1 transcript; test: qPCR of TGases mRNA in mouse scleral fibroblasts after muscarinic agents; settings: 0.01-10 μM for 5 days, qPCR normalized to GAPDH
Description: (§4) P2 cultured mouse scleral fibroblasts were treated with atropine or carbachol at different concentrations of 0.01 μM, 0.1 μM, […], 5 μM and 10 μM for 5 days. Following 5 days of treatment, the total RNA was extracted from these cells and TGases transcript level was quantified via qPCR analysis. Height of bars show the means of three independent samples and error bars represent standard deviation. Values are normalized against GAPDH house keeping genes.
as §1
(§5) Total RNA was isolated from cultured human and mouse scleral fibroblasts using TRIzol reagent (Invitrogen life technologies, USA) in accordance with the manufacturer's instructions Chomczynski P, Sacchi N., “Single-step method of RNA isolation by acid guanidinium thiocyanate-phenol-chloroform extraction”, Anal. Biochem. 1987 April; 162(1):156-9. Genomic DNA was removed by digestion with DNase I (Amp Grade; Invitrogen-Gibco) for 15 minutes at room temperature. One microgram of total RNA was reverse-transcribed with random hexamers by using a first-strand cDNA synthesis kit (Invitrogen-Gibco). qPCR was performed in a 384-well plate format on an Roche 480 LightCycler Detection System (Roche Applied Science, Mannheim, Germany) with efficiency corrected software 4.0. PCR was performed using 50 ng of cDNA of each sample. The pre-validated hydrolysis probes for TG-2 were from human and mouse universal probe library (Roche, CA) and the primers for human and mouse are shown in Table 3. GAPDH Internal Standard (Roche) was used as an endogenous control. To standardize and evaluate scleral gene expression, aliquots of the same cDNA (50 ng) preparation were used as templates in all PCR reactions. The data was analyzed by comparative CT (MCT) method as previously described in Brink N, Szamel M, Young A R, Wittern K P, Bergemann J., “Comparative quantification of IL-1, IL-10, Il-10r, TNF and IL-7 mRNA levels in UV-irradiated human skin in vivo”, Inflamm Res. 2000 June; 49(6):290-6.

[4] = system: TGase 5 transcript; test: as above; settings: 0.01-10 μM for 5 days, qPCR normalized to GAPDH
Description: as §4, §1, §5

[5] = system: TGase-3 transcript; test: as above; settings: 0.01-10 μM for 5 days, qPCR normalized to GAPDH
Description: as §4, §1, §5

[6] = system: TGase 2 (TGM-2) transcript; test: as above; settings: 0.01-10 μM for 5 days, qPCR normalized to GAPDH
Description: as §4
Murine scleral derived fibroblasts were cultured to passage 2 and treated to exogenous atropine or carbachol at 0.01 μM, 0.1 μM, 1 μM, 5 μM and 10 μM for 5 days. Following 5 days of treatment, the total RNA was extracted from these cells and RT-qPCR performed to determine transcript levels of TGM-2. The levels were normalized to GAPDH internal control. […] Height of bars or symbols represents mean and error bars SD. *: p<0.05 and **: p<0.001.
All cells used in examples described herein were between passages 2-4. Passaged cells were plated at a concentration of 2×10^5/mL into 6 well plates containing DMEM with 10% FBS. The cells were seen to attach to the bottom of the culture wells after 4 hours. […] The supernatant was poured into a new eppendorf tube and cell concentrations were determined using the Dc Protein assay Kit (Bio-Rad, MA). […] Cell lysate was collected for relative quantitative (q) PCR and protein analysis at day 5. […]

[7] = 0.01-10 μM for 5 days, Western blot
[8] = specific muscarinic antagonists

Row | Compound | TG-2 protein level [1, 7] | TG-2 protein level [2, 7] | TGase 1 transcript level [3] | TGase 5 transcript level [4] | TGase-3 transcript level [5] | TGase 2 (TGM-2) transcript level [6] | TG-2 protein level [1, 8] | TG-2 protein level [2, 8]
1 | CN1[C@@H]2CC[C@H]1C[C@@H](OC(=O)C(CO)c1ccccc1)C2 (some centres unmarked) [atropine] | reduced | reduced; also recorded: reduction | down regulated | down regulated | upregulated | reduction; also recorded: down regulated |  | 
2 | C[C@@H]1OC(=O)[C@H]2C[C@H]3CCCC[C@@H]3[C@@H](/C=C/[C@H]3CCC[C@H](C)N3C)[C@@H]12 [himbacine] |  |  |  |  |  |  | significantly reduced | significantly reduced
